From patent US20230125667A1, “NOVEL TDZD ANALOGS AS AGENTS THAT DELAY, PREVENT, OR REVERSE AGE-ASSOCIATED DISEASES AND AS ANTI-CANCER AND ANTILEUKEMIC AGENTS” (United States Government as represented by the Department …, priority 2020, published 2023)

Assays:
SH-SY5Y-APPSw cells = assay: Thioflavin-T staining of amyloid-like aggregates in SH-SY5Y-APPSw cells; type: cell-based, human
Procedure: (§1) Several TDZD-conjugated drugs (putative GSK-3 inhibitors) were evaluated for their ability to reduce accumulation of protein aggregates, and for protection against aggregation-associated end-points in the following model systems: (i.) SH-SY5Y-APPSw, a neuroblastoma cell line expressing the Swedish mutation of Amyloid Precursor Protein (APPSw), and thus predisposed to form β-amyloid deposits; (ii.) C. elegans strain CL4176, a model of Alzheimer-like amyloidopathy that can be induced to express human Aβ1-42 in muscle, or may express it at a lower level without induction; (iii.) C. elegans strain AM141, a model of Huntington-like polyglutamine aggregation that constitutively expresses Q40::YFP (a tract of 40 glutamines fused in-frame to yellow fluorescent protein) in muscle cells and forms aggregates progressively with adult aging. The TDZD analog PNR-962 (a putative GSK-3 inhibitor) and other related compounds (not shown) were protective in all aggregation assays.
First, the effects of TDZD analogues were tested on the human neuroblastoma cell line SH-SY5Y-APPSw, a model of Alzheimer-like amyloid aggregation expressing the “Sw” mutant form of Amyloid Precursor Protein, APP. These drugs all produced significant reductions in amyloid-like aggregates, by 30-50% as quantified by thioflavin-T staining intensity (data for PNR-962 are shown in FIG. 4). Modified TDZD-8 analogues PNR-962 and BSK-179 are more anti-aggregative than TDZD-8, lowering total amyloid-staining intensity by a further 14% (data not shown).
Following previously described experimental procedures (Liu, et al. (2005). S100B-induced microglial and neuronal IL-1 expression is mediated by cell type-specific transcription factors. Journal of Neurochemistry. 92(3): 546-553), SH-SY5Y-APPSw neuronal cells expressing an aggregation-prone double mutant of amyloid precursor protein (APPSw) were cultured in DMEM plus 10% (v/v) fetal bovine serum (FBS) at 37° C. Cells were suspended in trypsin/EDTA and rinsed in PBS prior to re-plating or harvesting. […] Human neuroblastoma cells were treated with PNR962, either simultaneous with sAPPα or beginning 1 h prior to sAPPα addition (pre-treatment) in order to ascertain the protective benefits of PNR962 on protein aggregation in human neuroblastoma cell lines. A similar experimental procedure was followed to examine the effect of treatment with these analogs on non-neuronal human cells, exposing human embryonic kidney cells (HEK) that express tau-like aggregates (found in AD-associated diseases) to 0.001, 0.01, and 1-μM doses of TDZD-8 and its analogues.
To observe the protective effects of the novel TDZD analogs on protein aggregation in SY5Y-APPSw cells, using DMEM medium containing 10% fetal calf serum in […], cells were cultured at 37′C for 26 hrs allowing cells to approximately double in number. After 48 h of cell incubation in the presence of specified concentrations of drug or vehicle, cells were fixed 15 min in formaldehyde (4% v/v), washed, and stained 20 min at ˜22° C. in a dark container with 0.1% w/v Thioflavin T mixed with DAPI (1 μg/ml; Life Technologies, Grand Island, N.Y., USA). […] The intensity of aggregate/thioflavin-T fluorescence per field was quantified via an Image J plug-in developed in-house, and normalized to the number of DAPI^+ nuclei counted per field, to obtain an average intensity of aggregates per cell for each treatment.

C. elegans strain AM141 = assay: Q40::YFP aggregates in C. elegans strain AM141; type: in vivo
Procedure: as §1
Fresh agar plates supporting bacterial lawns, which serve as food for C. elegans, were prepared at least 1 day ahead of use. C. elegans AM141 (forming Q40::YFP aggregates in muscle, progressively in early adulthood) were placed on these 100-mm plates. Day-4 adult worms were lysed with alkaline hypochlorite solution to obtain eggs from worms, a procedure that permits synchronization of worms in a cohort. Eggs were placed on plates spotted with different concentrations of TDZD analogues after allowing the compounds to be evenly distributed on the plates (˜1 hour after adding drugs to plates). Vehicle-only (DMSO) controls are included in each experiment, as a baseline for drug effects in experimental groups. Young-adult AM141 (day-3 adults) were transferred on alternate days onto fresh plates that contained the same doses of compounds, with fresh E. coli to prevent starvation of worms. Equal samples (n=25) were randomly picked from experimental groups and control group for microscopic imaging. Using an in-house plugin for ImageJ software (NIH), several images of AM141 were processed for aggregate count per worm. The fluorescence intensity of each aggregate (indicating the size/content of protein aggregates) was also measured. Each drug treatment was repeated multiple times to validate the results.

wild-type nematodes = assay: Lifespan of C. elegans; type: in vivo; details: FIG. 8
Procedure: It was previously shown that several interventions that improve age-associated phenotypes also modulate lifespan (Ayyadevara et al. (2017) Antioxid Redox Signal. 27(17): 1383-1396; Ayyadevara et al. (2005) Aging Cell. 4(5): 257-271). The lifespan was assessed in C. elegans, either mock-treated or exposed to TDZD analogues. PNR-962 and BSK-179 extended the lifespan of wild-type nematodes to an identical degree, increasing the mean by roughly 25-30% (P<0.001; FIG. 8).
To obtain synchronized eggs for lifespan studies, worms were maintained for 2 generations, free of contamination and starvation. Healthy, well-fed adult worms from the 2nd generation were then lysed, and eggs placed on plates with appropriate doses of TDZD analogue PNR962, or DMSO vehicle alone (for a final concentration of 0.02% v/v DMSO). At the L4 larval stage, worms were transferred daily to fresh plates for 7 days, and thereafter on alternate days until all the worms are dead. C. elegans that moved spontaneously or responded to gentle prodding were scored as alive. For the mortality computation, worms that were lost for reasons other than natural death were censored. The methods described were adopted from previously described experimental procedures (Ayyadevara, et al. (2016) PIP3-binding proteins promote age-dependent protein aggregation and limit survival in C. elegans. Oncotarget, 7(31): 48870-48886; Bharill, et al. (2013) Extreme Depletion of PIP3 Accompanies the Increased Life Span and Stress Tolerance of PI3K-null C. elegans Mutants. Frontiers in Genetics, 4).

C. elegans = details: in vivo; cited from earlier work

SMILES	further lowering of total amyloid-staining intensity relative to TDZD-8 (SH-SY5Y-APPSw cells; data not shown) [%]	amyloid accumulation (thioflavin T stained foci) (SH-SY5Y-APPSw cells; treated for 2 days (FIG. 9))	number of aggregation foci (C. elegans strain AM141; C. elegans model of Huntington's Disease (FIG. 7))	reduction of total intensity of Q40::YFP aggregates (C. elegans strain AM141; FIG. 7) [fold]	lifespan (wild-type nematodes)	extension of nematode lifespan (C. elegans) [%]
CC(=O)Oc1ccccc1C(=O)NCc1ccc(Cn2c(=O)sn(CCCl)c2=O)cc1 [BSK-179]	14	reduces amyloid accumulation	decreases	> 2	increased	
CC(=O)Oc1ccccc1C(=O)O [aspirin, acetylsalicylic acid, reference compound]					increased	22
